For one test, the system named is SK-MEL-5. The test is described as follows: Eight-day colony formation assay, melanoma SK-MEL-5. In kind it is cell-based, human. On the procedure: In addition to screens, eight-day colony formation assays were conducted for certain experiments, as denoted. When measuring the effect of 5-fluorouracil (5FU) on HT29 colon cancer cells, the following final 5FU concentrations were examined: 0 (DMSO only), 0.0012, 0.012, 0.12, 0.82, 5.7, 20, and 40 µM. When measuring the effect of Dxr2-017 on melanoma cell growth, the following concentrations were examined: 0 (DMSO only), 0.001, 0.01, 0.1, 1.0, and 10.0 µM. Melanoma studies were performed on M14 and SK-MEL-5 human melanoma cell lines. For each Dxr2-017 concentration for each cell line, there were N = 3 replicates, and experiments were performed a total of 3 separate times (each with N = 3 replicates). The IC50 values were calculated using nonlinear regression analysis. Data from individual experiments were log-transformed and fitted to a dose–response curve using the four-parameter logistic model of GraphPad Prism 10 software. The IC50 values were determined using the dose–response inhibition function. IC50 values from each of three different experiments were used to calculate mean ± SEM.

The next test deals with SK-MEL-5 cells. The test is described as follows: Cell cycle analysis by flow cytometry, SK-MEL-5. To be noted: 50 nM, eight days. It counts as cell-based, human. On the procedure:
A total of 1 × 10^4 M14 cells and 1 × 10^4 SK-MEL-5 cells were seeded into 10 cm culture dishes. Twenty-four hours later, cells were treated in replicates of N = 3, with Dxr2-017 at 20 nM for M14 and 50 nM for SK-MEL-5, or vehicle for controls for a total of eight days, with replacement of media, along with Dxr2-017 or vehicle, at day five. Cells were then collected, filtered to obtain single-cell suspensions, equal numbers of cells were fixed in 1 mL of 70% ethanol at 4 °C for 1 h, washed with PBS, and resuspended in 1 mL of Telford reagent (1 mM EDTA disodium salt, 2.5 U/mL RNAse A, 75 µM Propidium Iodide, and 0.1% Triton X-100 in PBS), and then incubated at 4 °C overnight. Cells were analyzed by flow cytometry (FACSCalibur analyzer, BD Biosciences). Cells were gated on forward scatter (FSC) versus side scatter (SCC) to remove debris, followed by gating of single cells using PI (FL2)-Area versus PI (FL2)-Width. Cell cycle analysis was performed on the PI (FL2)-Area parameter, and the percentages of cells within G0/G1, S, and G2/M phases were determined using Modfit LT 4.0.5.

Usually IC50 stands for the concentration that gives 50% inhibition. Low values mean inhibition by little substance, high ones a need for much substance. In the test on SK-MEL-5 (Homo sapiens, 192 h, SK-MEL-5 melanoma, mean ± SEM of three experiments), `c1ccc2sc(-c3ccc(CNc4ccc5nnnn5n4)o3)nc2c1` [Dxr2-017] showed a concentration for half-maximal inhibition (IC50) of 51 ± 11 nM. The “fold efficacy relative to bone marrow stem cells treated at 40 µM” value in the test on SK-MEL-5 (SK-MEL-5 IC50 versus eight-day bone marrow treatment at 40 µM) was more than 750 fold. Moreover, in the test on SK-MEL-5 cells, the “effect on cell cycle parameters” value is listed as “little-to-no change in cell cycle parameters”.

The values are drawn from publication PMC11429909, “Protein Structure Inspired Discovery of a Novel Inducer of Anoikis in Human Melanoma” (Cancers, 2024).
